Results published in patent publication US7294496B1, “Cloned human lysophospholipase” (The Regents of the University of California, priority 2000, dated 2007).
Like-named read-outs stand apart in the source and are kept apart here.

Experiments:
[1] = target: T1, human recombinant LysoPLA (Homo sapiens, UniProt O75608, F152L); format: biochemical
T1 construct: made in house; host or cells: E. coli BL21(DE3)

mouse LysoPLA = mouse LysoPLA (Mus musculus, UniProt P97823); experiment: Inhibition of mouse LysoPLA; format: biochemical
Method: Various concentrations of each inhibitor (BioMol) were prepared in DMSO. 5 μl of each inhibitor was added to 480 μl of LysoPC substrate (125 μM Ly-soPC in the assay buffer). Enzyme (either mouse or human PLA) was added to the substrate-inhibitor mixture to start the reaction, which was incubated at 40° C. for 30 min. Control experiments were performed with the same amount of enzyme with 5 μl DMSO in the incubation mixture. The reversibility of the inhibition was tested by pre-incubation of the enzyme in the presence or absence of the inhibitor, followed by overnight dialysis in the assay buffer. The recovery of the enzyme activity as a function of time was then followed. Each data point represents an average of duplicates.

[2] = mouse enzyme, 125 μM LysoPC, similar results as human enzyme

T1 sequence (O75608 whole entry F152L): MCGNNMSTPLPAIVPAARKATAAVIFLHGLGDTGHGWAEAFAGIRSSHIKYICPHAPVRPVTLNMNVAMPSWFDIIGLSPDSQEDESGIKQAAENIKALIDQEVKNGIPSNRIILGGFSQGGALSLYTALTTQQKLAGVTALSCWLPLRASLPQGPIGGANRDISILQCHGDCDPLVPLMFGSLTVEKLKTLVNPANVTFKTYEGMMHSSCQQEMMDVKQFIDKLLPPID
Sequence of mouse LysoPLA (P97823 whole entry): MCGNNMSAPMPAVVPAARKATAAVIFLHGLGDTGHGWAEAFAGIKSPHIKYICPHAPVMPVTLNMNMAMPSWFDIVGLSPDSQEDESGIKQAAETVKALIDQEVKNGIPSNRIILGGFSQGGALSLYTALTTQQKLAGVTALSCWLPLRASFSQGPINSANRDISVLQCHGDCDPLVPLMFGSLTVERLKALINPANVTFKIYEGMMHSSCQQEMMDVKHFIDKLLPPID

## O=C1O/C(=C/Br)CCC1c1cccc2ccccc12 (stereo not drawn) [BEL, bromoenol lactone]
[1]; human enzyme, 125 μM LysoPC
  inhibition of LysoPLA activity (in words): neither of them inhibited the LysoPLA activity well
Mouse LysoPLA; [2]
  inhibition of LysoPLA activity (in words): neither of them inhibited the LysoPLA activity well

## CCCCCCCCCCCCCCCCOC[C@@H](O)COP(=O)([O-])OCC[N+](C)(C)C [LysoPAF]
[1]
  inhibition of LysoPLA activity (in words): not a good inhibitor
Mouse LysoPLA
  inhibition of LysoPLA activity (in words): not a good inhibitor

## CCCCCCCCCCCCCCCC(=O)C(F)(F)F [PACOCF3, palmitoyl tri£uoromethyl ketone]
[1]; human enzyme, 125 μM LysoPC
  inhibition of LysoPLA activity (in words): neither of them inhibited the LysoPLA activity well
Mouse LysoPLA; [2]
  inhibition of LysoPLA activity (in words): neither of them inhibited the LysoPLA activity well
